Assay results as given in US20200109421A1, “METHODS FOR INTEGRATION OF TRANSGENE DNA” (Selexis S.A., priority 2018, published 2020).
“Also recorded” adds a separate entry of the source.

How the values were obtained:
SURE CHO-M cell line [1] = assay: Cell cycle analysis of CHO cells by propidium iodide DNA content flow cytometry; type: cell-based, Chinese hamster; details: overnight in medium; DMSO 1%, APH 1 μM, MTX 1 uM, NOCO 1.5 μM
Method: SURE CHO-M cell™ line (SELEXIS SA, Switzerland, see: U.S. Pat. Nos. 7,129,062, 8,252,917 and 9,879,297, and U.S. Patent Applications No. 20110061117 and 20120231449, the disclosures of which are incorporated herein by reference in their entirety) were cultivated overnight in asynchronous condition (FIG. 1A) or in presence of DMSO 1%, aphidicholin (APH) 1 μM, methotrexate (MTX) 1 uM or nocodazole (NOCO) 1.5 μM (FIG. 1B). Cells were then fixed in ethanol and labelled overnight at 4° C. with propidium iodide (PI; 50 μg/ml, Sigma) in presence of RNAse (0.5 μg/ml, Sigma). DNA content index histograms were acquired on Guava EasyCyte System® using INCYTE acquisition software. Each phase of cell cycle was defined according to the drug treatment as G1 arrest (DMSO); S phase (APH); G2 (NOCO). The % of G0/G1, % of S and % of G2/M arrested cells were then calculated (see Table FIG. 1B).
Cell cycle was analyzed by flow cytometry at release (18 h with drug) and at 1, 2, 4, 6 and 8 h after release. Released cells were then further cultivated according to the indicated time points. Asynchronous (control) cells were included as controls. DNA content index histograms were acquired on Guava EasyCyte System® (MILLIPORE) using INCYTE acquisition software.

SURE CHO-M cells [2] = assay: Cell synchronization with plasmid or CRISPR/Cas-mediated transgene integration: fed-batch PCD; parameters: species or system Chinese hamster; details: G1 synchronization, DMSO 1% overnight, plasmid-based and CRISPR/Cas9-mediated expression system
Method: Asynchronous and synchronized cells were transfected with IgG-trastuzumab expressing vectors and cultivated under antibiotic selection for 10 days.
Stable expressing pools were subcultivated in complete culture medium for 4 subsequent passages in spin tubes (5 ml wv) (FIG. 4B). Cell density (Cv·ml^−1) and IgG titer values (μg·ml^−1) were determined. […] Growth and performance of each stable established IgG-expressing pool was then evaluated in spin tube in a 9-day fedbatch process using Acto CHO A+B feed (GE Healthcare). Fed-batch cultures were initiated at cell concentrations of 0.3×10^6 cells/ml in 5 mL working volume run. (FIG. 4C). The specific IgG productivity was determined as the slope of IgG concentration versus the integral number of viable cells (IVCD) and expressed as pg per cell and per day (pcd). Histograms represented the fold change of productivity per cell per day (PCD) obtained for DMSO and 4° C. pre-treatment compared to their respective untreated-controls cells.

SURE CHO-M cells [3] = assay: Cell synchronization combined with DNA repair pathway modulators: CSA of trastuzumab IgG-producing cells; type: cell-based, Chinese hamster; details: for proportion of high-expressing cells: immediately after transfection, in combination with S and G2 arrest
Method: Freshly transfected cells were incubated in presence of various NHEJ, HR, MMEJ or SSA modulators immediately after electroporation to identify the DNA repair pathway involved in transgene integration and depending on the targeted cell cycle phase.

SURE CHO-M cell line [4] = assay: eGFP expression after transfection of synchronized CHO cells (cytometer imager); type: cell-based, Chinese hamster; details: day 2 and day 11 after transfection; synchronized prior to transfection vs non-synchronized cells
Method: (§1) Asynchronous and synchronized SURE CHO-M cell™ lines (SELEXIS SA, Switzerland) were transfected with eGFP- (FIG. 1E) or Trastuzumab IgG-expression SLX-vectors (FIG. 1F and FIG. 1G) immediately after drugs release. Transfection was done by microporation (NEON TRANSFECTION SYSTEM, INVITROGEN), generating a heterogeneous pool of transfected cells. 24 h after transfection, 5 ug/ml puromycin selection agent (GIBCO) was added to the BalanCD medium (IRVINE) supplemented with 6 mM L-Glutamine (HYCLONE). Expression pools performances were then evaluated for GFP or IgG at different time points after transfection. The percentage and GFP fluorescence mean intensity (FMI) level were evaluated on cytometer imager at d2 and d11 post-transfection (CELIGO S; NEXCELOM). Results were represented as fold change of control cells (FIG. 1E; histograms).

SURE CHO-M cell line [5] = assay: Cell Secretion Assay (CSA) of Trastuzumab IgG-producing cells after synchronization; type: cell-based, Chinese hamster; details: 2 days post-transfection; vs asynchronized cells
Method: as §1
The percentage and secretion mean intensity (SMI) of IgG-producing cells were determined at d2 (FIG. 1F) and d10 (FIG. 1G) post-transfection using Cell Secretion Assay methods (CSA).

SURE CHO-M cells [6] = assay: Cell recovery during antibiotic selection after synchronization and DNA repair modulation; details: S- and G2-synchronized cells, with DNA repair pathways inhibition
Method: SURE CHO-M cells™ (SELEXIS SA, Switzerland) were synchronized overnight with DMSO 1%, aphidicolin (APH) 1 μM, methotrexate (MTX) 1 μM or nocodazole (NOCO) 1.5 μM. After 18 hrs of incubation, cells were centrifuged, rinse twice into PBS 1× and resuspended in complete culture medium. Asynchronous and synchronized cells were transfected with trastuzumab IgG-plasmid expressing vector. Freshly transfected cells were then immediately resuspended and incubated overnight in presence of NU7441, RI-1, RS-1 or Olaparib small molecules (drugs provided by TOCRIS, CALBIOCHEM or APEXBIO TECHNOLOGY) before to change medium and start antibiotic selection.
Cell recovery behavior during antibiotic selection was monitored for each transfection condition and recorded as + or − signs.

SURE CHO-M cells [7] = assay: Nu7441 treatment before transfection: productivity in 9-day fedbatch (ELISA titer, PCD); type: cell-based, Chinese hamster; details: 0.4 μM just before transfection
Method: SURE CHO-M cells™ (SELEXIS SA, Switzerland) were treated with 0.4 μM of DNA-PK inhibitor Nu7441 (TOCRIS) just before transfection of 3 μg of the antibody DNA fragment, respectively Trastuzumab (Tras) or Adalimumab (ADA). Transfection was done by microporation (Neon Transfection system, Invitrogen). 24 h after transfection, 5 μg/ml puromycin selection agent (Gibco) was added.
Growth and performance of the 6 top clones of each enzymatic condition were evaluated in spin tube in a 9-day fedbatch process using Acto CHO A+B feed (GE Healthcare). Fed-batch cultures were initiated at cell concentrations of 0.3×10^6 cells/ml in 5 mL working volume run. Cell density and cell viability along the process were evaluated by using a Guava System (Millipore) and supernatant sample was collected. Antibody product titer was evaluated by ELISA capture assay against the collected supernatant, at day 9 of the fedbatch process. Productivity per cell per day (PCD) was calculated as function of titer and viable cell density during the fedbatch process.

SURE CHO-M cells [8] = assay: IgG transfection in presence of Sbf1 restriction enzyme and NU7441: CSA of stable cells; type: cell-based, Chinese hamster; details: Sbf1 present
Method: Asynchronized (AS) or G1-synchronized (G1) SURE CHO-M cells' (SELEXIS SA, Switzerland) were transfected with trastuzumab IgG-expressing vector in presence of Sbf1 restriction enzyme. Transfected cells were incubated overnight in presence of the NHEJ inhibitor—NU7441 ([…])—before change of medium and start antibiotic selection. The histograms show cell secretion assay (CSA) as percentage (white bar) and secretion mean intensity (SMI) (grey bar) of total producing cells (FIG. 6A) or of the high-, medium- and low-producing subpopulations (FIG. 6B) performed on stable trastuzumab-expressing cells.

[9] = after 10 days of antibiotic selection, NU7441 0.4 mM overnight, AS_NU and G1_NU vs AS and G1

`C[C@@]1(CO)[C@H](O)CC[C@@]2(C)[C@H]1CC[C@H]1C[C@@H]3C[C@@]12CC[C@]3(O)CO` [APH, aphidicolin] was tested, and the “cell cycle phase at which cells are arrested” value (“cell cycle phase” below) (SURE CHO-M cell line [1]) was “S phase”.

`C[S+](C)[O-]` [DMSO, dimethyl sulfoxide] was tested, and the “cell cycle phase” value (SURE CHO-M cell line [1]) was “G1 arrest; also recorded: G1 phase”, the “productivity (fold change of PCD vs untreated control cells)” value (SURE CHO-M cells [2]) was “significant increase” and the “high-producing subpopulation (% HP) of stable IgG-producing cells” value (SURE CHO-M cells [3]; after 10 days of antibiotic selection, G1-synchronized, with or without DNA repair modulators, vs asynchronous controls) was “increase”.

`CN(Cc1cnc2nc(N)nc(N)c2n1)c1ccc(C(=O)N[C@@H](CCC(=O)O)C(=O)O)cc1` [MTX, methotrexate] was tested, and the “cell cycle phase” value (SURE CHO-M cell line [1]) was “G1/S phase”, the “mean intensity of GFP-expressing cells” value (SURE CHO-M cell line [4]) was “higher” and the “percentage of GFP-expressing cells” value (SURE CHO-M cell line [4]) was “higher”. For the same compound, the “% of Trastuzumab-expressing cells” value (SURE CHO-M cell line [5]) was “higher”, the “mean intensity of Trastuzumab-expressing cells” value (SURE CHO-M cell line [5]) was “higher” and the “cytotoxic effect (cells failed to pass the antibiotic selection)” value (SURE CHO-M cells [6]) was “lethal cytotoxic effect”.

In the case of `COC(=O)Nc1nc2ccc(C(=O)c3cccs3)cc2[nH]1` [NOCO, nocodazole], the “mean intensity of GFP-expressing cells” value (SURE CHO-M cell line [4]) is reported as “higher”, the “percentage of GFP-expressing cells” value (SURE CHO-M cell line [4]) is reported as “higher” and the “% of Trastuzumab-expressing cells” value (SURE CHO-M cell line [5]) is reported as “higher”. For the same compound, the “mean intensity of Trastuzumab-expressing cells” value (SURE CHO-M cell line [5]) was “higher” and the “cytotoxic effect (cells failed to pass the antibiotic selection)” value (SURE CHO-M cells [6]) was “lethal cytotoxic effect”.

In the case of `O=c1cc(N2CCOCC2)oc2c(-c3cccc4c3sc3ccccc34)cccc12` [Nu7441], the “productivity per cell per day (PCD)” value (SURE CHO-M cells [7]; Trastuzumab) is reported as “clear increased”, the “productivity per cell per day (PCD)” value (SURE CHO-M cells [7]; adalimumab) is reported as “less evident” and the “productivity (antibody product titer)” value (SURE CHO-M cells [7]; both antibody molecules (Trastuzumab, Adalimumab)) is reported as “increase”. The “proportion of high-expressing cells” value (SURE CHO-M cells [3]) was “higher”, the “high- and medium-producing cells subpopulations” value (SURE CHO-M cells [8]; G1 phase synchronized and Nu7441 treated, after 10 days selection) was “significant increase” and the “mean intensity of IgG-expressing cells” value (SURE CHO-M cells [8]; [9]) was “higher”. The “percentage of IgG-expressing cells” value (SURE CHO-M cells [8]; [9]) was “higher” and the “proportion of IgG-producing cells” value (SURE CHO-M cells [8]; combination with G1 phase synchronization (G1_NU compared to AS)) was “best”.

In the case of `O=C(c1cc(Cc2n[nH]c(=O)c3ccccc23)ccc1F)N1CCN(C(=O)C2CC2)CC1` [Olaparib], the “proportion of high-expressing cells” value (SURE CHO-M cells [3]) is reported as “higher”.

`O=C1C(Cl)=C(N2CCOCC2)C(=O)N1c1ccc(Cl)c(Cl)c1` [RI-1] was tested, and the “proportion of high-expressing cells” value (SURE CHO-M cells [3]) was “higher”.
